# Experimental data published in US20250313546A1, “NUCLEIC ACID BINDERS” (UNIVERSITY OF STRATHCLYDE, priority 2022, published 2025).
# Assays:
# [1] = tested on: Enterococcus faecalis (ATCC 51299); experiment: Antibacterial MIC, broth microdilution (CLSI); format: cell-based; settings: for MIC80: Enterococcus faecalis, ATCC51299, read-out: MIC80 E. faecalis
# [2] = tested on: Staphylococcus aureus (ATCC 43300); experiment: Antibacterial MIC, broth microdilution (CLSI); format: cell-based; settings: for MIC80: Staphylococcus aureus, ATCC43300, read-out: MIC80 S. aureus; for S. aureus Selectivity Indices, Group: SI, IC50 (μM)/MIC80 (μM), HEK293 cytotoxicity
# [3] = tested on: PolyAU double stranded RNA; experiment: Fluorescence intercalator displacement (FID) assay, SYBR-safe probe; settings: 20 μM compound, 30° C., lower % = stronger binding
# Procedure: (§1) The ability of compounds of the invention to bind to DNA and RNA was assessed using a fluorescence intercalator displacement assay. Genomic double stranded DNA (salmon) or PolyAU double stranded RNA is treated with probe molecule (Sybr-Safe) that increases its fluorescence upon binding to nucleic acids.
# (§2) polyAU RNA (Polyadenylic acid—Polyuridylic acid sodium salt, double-stranded homopolymer, P1537, Merck) or genomic DNA (Deoxyribonucleic acid sodium salt from salmon testes, D1626, Merck) was dissolved in 1 mM pH 7.4 phosphate buffer (containing 0.27 mM potassium chloride, 13.7 mM sodium chloride) to a concentration of 1 mg/mL in, SybrSafe (SYBR® Safe DNA Gel Stain, ×10,000 in DMSO, S33102 Invitrogen) was used as supplied by the manufacturer in DMSO, and compounds of the invention were prepared as 10 mM stocks in DMSO. These stock solutions were diluted appropriately with each other and 1 mM phosphate buffer to give test solutions comprised of 20 μM compound of the invention, 12500-fold dilution of SybrSafe and 3.76 ng/mL RNA/DNA. Control solutions of RNA/DNA and SybrSafe, RNA/DNA, and SybrSafe at these concentrations were also prepared. Test and control solutions were heated to 30° C. and the fluorescence of each solution was measured using the SYBER filter setting of a StepOnePlus using melt analysis mode (StepOne Software v2.3). The reduction of fluorescence due to the binding of the compound of the invention to the RNA/DNA was calculated as a normalised percentage based on the fluorescence measured due to the control with SybrSafe and RNA/DNA as maximum and the control with only SybrSafe as minimum.
# (§3) A reduction in normalised % is indicative of probe displacement and thus strong nucleic acid binding.
# [4] = tested on: Genomic double stranded DNA (salmon); experiment: as above; settings: 20 μM compound, 30° C., lower % = stronger binding
# Procedure: as §1, §2, §3
# [5] = tested on: T. vaginalis; experiment: Trichomonas resorufin assay; format: cell-based; settings: for IC50: Trichomonas vaginalis, read-out: IC50 T. vaginalis
# [6] = tested on: Escherichia coli (ATCC 25922); experiment: Antibacterial MIC, broth microdilution (CLSI); format: cell-based; settings: for MIC80: Escherichia coli, ATCC25922, read-out: MIC80 E. coli
# [7] = tested on: A. fumigatus A1160 (MFIG001); settings: Aspergillus fumigatus, read-out: MIC99 A. fumigatus A1160
# [8] = tested on: Candida glabrata (ACPF3309); settings: Nakaseomyces glabratus, read-out: MIC99 Candida glabrata
# Procedure: The Minimum Inhibitory Concentration (MIC, at 99% inhibition) of the compounds was determined using the broth microdilution method as recommended by EUCAST (EUCAST Definitive Document E.DEF 9.3.2, Method for the determination of broth dilution minimum inhibitory concentrations of antifungal agents for conidia forming moulds and EUCAST Definitive Document E.DEF 7.3.2 Method for the determination of broth dilution minimum inhibitory concentrations of antifungal agents for yeasts).
# [9] = tested on: C. neoformans (F10025); settings: Cryptococcus neoformans, read-out: MIC99 C. neoformans
compound,measurement,setting,value
"CC(C)NC(=O)c1cc(NC(=O)c2cc(NC(=O)c3ccc(/C=C/c4cnc5ccccc5c4)cc3)cn2C)cn1C [IVa4, (E)-N-isopropyl-1-methyl-4-(1-methyl-4-(4-(2-(quinolin-3-yl)vinyl)benzamido)-1H-pyrrole-2-carboxamido)-1H-pyrrole-2-carboxamide]",MIC80,[1],25 to 100 µM
same,MIC80,[2],< 5 µM
same,% Normalised Fluorescence with polyAU RNA,[3],81%
same,% Normalised Fluorescence with gDNA,[4],15%
same,IC50,[5],5 to 50 µM
same,MIC80,[6],> 100 µM
"CCCCNC(=O)c1cc(NC(=O)c2cc(NC(=O)c3ccc(/C=C/c4cnc5ccccc5c4)cc3)cn2C)cn1C [IVa5, (E)-N-butyl-1-methyl-4-(1-methyl-4-(4-(2-(quinolin-3-yl)vinyl)benzamido)-1H-pyrrole-2-carboxamido)-1H-pyrrole-2-carboxamide]",MIC80,[1],< 5 µM
same,"E. faecalis Selectivity Indices, Group","[1]; SI, IC50 (μM)/MIC80 (μM), HEK293 cytotoxicity, Amides","C (Group: C, 1.5 < SI <= 5)"
same,E. faecalis Selectivity Index (SI),"[1]; SI, IC50 (μM)/MIC80 (μM), HEK293 cytotoxicity, numeric value",2
same,"S. aureus Selectivity Indices, Group",[2]; Amides,B (Group B: 1.4 < SI <= 3)
same,MIC80,[2],< 5 µM
same,% Normalised Fluorescence with polyAU RNA,[3],12%
same,% Normalised Fluorescence with gDNA,[4],51%
same,"T. vaginalis Selectivity Indices, Group","[5]; SI, IC50 (μM)/IC50 (μM), HEK293 cytotoxicity, Amides",C (Group C: SI > 0.5)
same,T. vaginalis Selectivity Index (SI),"[5]; SI, IC50 (μM)/IC50 (μM), HEK293 cytotoxicity, numeric value",2
same,IC50,[5],1 to 5 µM
same,MIC80,[6],> 100 µM
"Cn1cc(NC(=O)c2cc(NC(=O)c3ccc(/C=C/c4cnc5ccccc5c4)cc3)cn2C)cc1C(=O)NCCOCCOCCO [IVa7, (E)-N-(2-(2-(2-hydroxyethoxy)ethoxy)ethyl)-1-methyl-4-(1-methyl-4-(4-(2-(quinolin-3-yl)vinyl)benzamido)-1H-pyrrole-2-carboxamido)-1H-pyrrole-2-carboxamide]",MIC80,[1],> 100 µM
same,MIC80,[2],5 to 25 µM
same,% Normalised Fluorescence with polyAU RNA,[3],92%
same,% Normalised Fluorescence with gDNA,[4],65%
same,IC50,[5],5 to 50 µM
same,MIC80,[6],> 100 µM
"[H]/N=C(\CCNC(=O)c1cc(NC(=O)c2cc(NC(=O)c3ccc(C=Cc4ccc5nonc5c4)cc3)cn2C)cn1C)NC [Ia3, (E)-4-(4-(2-(benzo[c][1,2,5]oxadiazol-5-yl)vinyl)benzamido)-N-(5-((3-imino-3-(methylamino)propyl)carbamoyl)-1-methyl-1H-pyrrol-3-yl)-1-methyl-1H-pyrrole-2-carboxamide]",MIC80,[2],< 5 µM
same,% Normalised Fluorescence with polyAU RNA,[3],38%
same,% Normalised Fluorescence with gDNA,[4],13%
same,MIC80,[6],> 100 µM
same,MIC99,[7],< 5 µg/mL
"C/N=C(/CCNC(=O)c1cc(NC(=O)c2cc(NC(=O)c3ccc(/C=C/c4ccc(C(F)(F)F)cc4)cc3)cn2C)cn1C)NC [Ia5, 1-methyl-4-(1-methyl-4-(4-((E)-4-(trifluoromethyl)styryl)benzamido)-1H-pyrrole-2-carboxamido)-N—((Z)-3-(methylamino)-3-(methylimino)propyl)-1H-pyrrole-2-carboxamide]",MIC80,[2],< 5 µM
same,% Normalised Fluorescence with polyAU RNA,[3],12%
same,% Normalised Fluorescence with gDNA,[4],21%
same,MIC80,[6],> 100 µM
same,MIC99,[7],25 to 50 µg/mL
"C/N=C(/CCNC(=O)c1cc(NC(=O)c2cc(NC(=O)c3ccc(/C=C/c4ccc5ccccc5c4)cc3)cn2C)cn1C)NC [Ia7, 1-methyl-4-(1-methyl-4-(4-((E)-2-(naphthalen-2-yl)vinyl)benzamido)-1H-pyrrole-2-carboxamido)-N—((Z)-3-(methylamino)-3-(methylimino)propyl)-1H-pyrrole-2-carboxamide]",MIC80,[2],< 5 µM
same,% Normalised Fluorescence with polyAU RNA,[3],24%
same,% Normalised Fluorescence with gDNA,[4],10%
same,MIC80,[6],> 100 µM
same,MIC99,[7],25 to 50 µg/mL
"COc1cccc(/C=C/c2ccc(C(=O)Nc3cc(C(=O)Nc4cc(C(=O)NCCC(=N)NC(C)C)n(C)c4)n(C)c3)cc2)c1 [Ia19, (E)-N-(3-imino-3-(isopropylamino)propyl)-4-(4-(4-(3-methoxystyryl)benzamido)-1-methyl-1H-pyrrole-2-carboxamido)-1-methyl-1H-pyrrole-2-carboxamide]",MIC80,[1],5 to 25 µM
same,"S. aureus Selectivity Indices, Group",[2]; Alkyl Amidines and NH Pyrroles,B (Group B: 3 < SI <= 5)
same,MIC80,[2],5 to 25 µM
same,% Normalised Fluorescence with polyAU RNA,[3],8%
same,% Normalised Fluorescence with gDNA,[4],10%
same,IC50,[5],5 to 50 µM
same,MIC80,[6],25 to 100 µM
"COc1cccc(/C=C/c2ccc(C(=O)Nc3cc(C(=O)Nc4cc(C(=O)NCCC(=N)NC(C)C)n(C)c4)n(C)c3)cn2)c1 [Ia23, (E)-N-(5-((5-((3-imino-3-(isopropylamino)propyl)carbamoyl)-1-methyl-1H-pyrrol-3-yl)carbamoyl)-1-methyl-1H-pyrrol-3-yl)-6-(3-methoxystyryl)nicotinamide]",MIC80,[1],> 100 µM
same,MIC80,[2],25 to 100 µM
same,% Normalised Fluorescence with polyAU RNA,[3],25%
same,% Normalised Fluorescence with gDNA,[4],41%
same,IC50,[5],5 to 50 µM
same,MIC80,[6],> 100 µM
"[H]/N=C(\CCNC(=O)c1cc(NC(=O)c2cc(NC(=O)c3ccc(C=Cc4ccc5nonc5c4)cc3)cn2C)cn1C)NCCc1ccccc1 [Ia43, (E)-4-(4-(2-(benzo[c][1,2,5]oxadiazol-5-yl)vinyl)benzamido)-N-(5-((3-imino-3-(phenethylamino)propyl)carbamoyl)-1-methyl-1H-pyrrol-3-yl)-1-methyl-1H-pyrrole-2-carboxamide]",MIC80,[1],< 5 µM
same,MIC80,[2],< 5 µM
same,% Normalised Fluorescence with polyAU RNA,[3],42%
same,% Normalised Fluorescence with gDNA,[4],15%
same,MIC80,[6],> 100 µM
"[H]/N=C(\CCNC(=O)c1cc(NC(=O)c2cc(NC(=O)c3ccc(C=Cc4ccc5nonc5c4)cc3)cn2C)cn1C)NCCCN(C)C [Ia46, (E)-4-(4-(2-(benzo[c][1,2,5]oxadiazol-5-yl)vinyl)benzamido)-N-(5-((3-((3-(dimethylamino)propyl)amino)-3-iminopropyl)carbamoyl)-1-methyl-1H-pyrrol-3-yl)-1-methyl-1H-pyrrole-2-carboxamide]",MIC80,[1],> 100 µM
same,MIC80,[2],25 to 100 µM
same,% Normalised Fluorescence with polyAU RNA,[3],2%
same,% Normalised Fluorescence with gDNA,[4],10%
same,IC50,[5],5 to 50 µM
same,MIC80,[6],> 100 µM
"[H]/N=C(\CCNC(=O)c1cc(NC(=O)c2cc(NC(=O)c3ccc(C=Cc4ccc5nonc5c4)cc3)cn2C)cn1C)N1CCN(C)CC1 [Ib4, (E)-4-(4-(2-(benzo[c][1,2,5]oxadiazol-5-yl)vinyl)benzamido)-N-(5-((3-imino-3-(4-methylpiperazin-1-yl)propyl)carbamoyl)-1-methyl-1H-pyrrol-3-yl)-1-methyl-1H-pyrrole-2-carboxamide]",MIC99,[8],25 to 50 µg/mL
same,MIC80,[1],< 5 µM
same,MIC80,[2],< 5 µM
same,% Normalised Fluorescence with polyAU RNA,[3],5%
same,% Normalised Fluorescence with gDNA,[4],20%
same,MIC99,[9],5 to 25 µg/mL
same,MIC80,[6],> 100 µM
"CCCCCC[N+](C)(C)CCNC(=O)c1cc(NC(=O)c2cc(NC(=O)c3ccc(/C=C/c4cnc5ccccc5c4)cc3)cn2C)cn1C [Ic5, (E)-N,N-dimethyl-N-(2-(1-methyl-4-(1-methyl-4-(4-(2-(quinolin-3-yl)vinyl)benzamido)-1H-pyrrole-2-carboxamido)-1H-pyrrole-2-carboxamido)ethyl)hexan-1-aminium]",MIC99,[8],5 to 25 µg/mL
same,MIC80,[1],5 to 25 µM
same,"S. aureus Selectivity Indices, Group",[2]; Quaternary ammoniums,C (Group C: 5 < SI <= 10)
same,MIC80,[2],< 5 µM
same,"T. vaginalis Selectivity Indices, Group","[5]; SI, IC50 (μM)/IC50 (μM), HEK293 cytotoxicity, Quaternary ammoniums",B (Group B: 0.8 < SI <= 1.5)
same,IC50,[5],1 to 5 µM
same,MIC80,[6],> 100 µM
same,MIC99,[7],> 50 µg/mL
"CCCCCCC[N+](C)(C)CCNC(=O)c1cc(NC(=O)c2cc(NC(=O)c3ccc(/C=C/c4cnc5ccccc5c4)cc3)cn2C)cn1C [Ic6, (E)-N,N-dimethyl-N-(2-(1-methyl-4-(1-methyl-4-(4-(2-(quinolin-3-yl)vinyl)benzamido)-1H-pyrrole-2-carboxamido)-1H-pyrrole-2-carboxamido)ethyl)heptan-1-aminium]",MIC80 E. faecalis,"[1]; MIC at 80% inhibition, ATCC 51299",** (** means 5 μM < MIC80 <= 25 μM)
same,MIC80 S. aureus,"[2]; MIC at 80% inhibition, ATCC 43300",*** (*** means MIC80 <= 5 μM)
same,% Normalised Fluorescence with polyAU RNA,[3],12%
same,% Normalised Fluorescence with gDNA,[4],50%
same,MIC80 E. coli,"[6]; MIC at 80% inhibition, ATCC 25922",— (— means MIC80 > 100 μM)
